Earlier results as cited in patent US10201964B2, “Treatment for reducing the toxicity of 3D-printed parts” (The Regents of the University of California, priority 2015, dated 2019).

Legend:
[1] = when used as scaffolds

Structure (SMILES)	toxic effects on embryonic and fetal development (rat fetuses)	cardiovascular failure [1]
C=C(C)C(=O)O [methacrylic acid]	toxic effects on embryonic and fetal development in rat fetuses	–
C=CC(=O)O [acrylic acid]	toxic effects on embryonic and fetal development in rat fetuses	–
C=C(C)C(=O)OC [methylmethacrylate]	–	associated with irreversible cardiovascular failure
